Measured values as given in patent US20250108038A1 (priority 2023, published 2025).
pIC50: −log10 of the molar value.

Experiments:
[1] = Brain homogenate binding by equilibrium dialysis; type: in vitro ADME, mouse; settings: for % Recovery / % Unbound: mouse brain, 2 μM, 37° C.
Description: Samples of spiked plasma and blank buffer (Dulbecco's phosphate-buffered saline, DPBS) and spiked brain homogenate and blank DPBS added to opposing sides of a dialysis membrane were collected from triplicate equilibrium dialysis chambers prior to (t=0) and following 1, 2, 4 and 6 hours of incubation at 37° C. […] The LC-MS/MS method(s) for analytes (Compound I-19, Compound A and Compound B) was cross-qualified for the analysis of the DPBS samples.
A secondary stock solution of 200 μM (74.2 ug/mL) will be prepared in DMSO. This secondary stock solution will then be diluted 100-fold to 2 μM ([…]) with male CD-1 mouse plasma and brain homogenate (1:2 v/v brain:Dulbecco's phosphate buffered saline, pH 7-7.2) or buffer (DPBS).
To 2.97 mL aliquots of thawed mouse plasma or brain homogenate warmed to 37° C., 30 ul aliquots of the secondary stock solution of the test compound will be added for final concentrations of 2 μM (0.742 ug/mL). An appropriate volume of warmed buffer (DPBS) will also be spiked with the test compound at a concentration of 2 μM ([…]). Triplicate aliquots (50 μL) of each spiked plasma, brain homogenate and buffer solution will be collected prior to dialysis into labeled 1.5 mL polypropylene tubes and then stored at approximately −80° C. until bioanalysis.
Equilibrium dialysis will be performed in a 96-well Teflon dialysis unit (HTDialysis, Gales Ferry, CT). Each well of the unit consists of two chambers separated by a vertically aligned dialysis membrane (regenerated cellulose) with a molecular weight cut-off of 12-14 KDa. The equilibrium dialysis membranes will first be presoaked in deionized water for 30 min, then soaked in 20% ethanol for 20 min, followed by rinsing twice with deionized water.
The equilibrium dialysis apparatus will be assembled according to the manufacturer's directions. One chamber of each well will be immediately filled with 150 μL of blank buffer (to prevent membrane dehydration). Aliquots (150 μL) of spiked plasma, spiked brain homogenate and spiked buffer will then be added to the opposing chamber in each well. Three wells per time point per matrix will be used. The top of the plate will be sealed with an adhesive sealing film to prevent evaporation and maintain constant pH during incubation.
The dialysis apparatus will be incubated at 37° C. in an orbital shaker/incubator (Lab-Line Enviro Shaker) set at 75 rpm.
Following 1, 2, 4 and 6 hours of incubation, samples from each plasma, brain homogenate and buffer compartment will be collected and the sample volume will be documented.

CYP2C8 = target: T1, CYP2C8 (Homo sapiens, UniProt P10632)
T1 sequence (P10632 1-490): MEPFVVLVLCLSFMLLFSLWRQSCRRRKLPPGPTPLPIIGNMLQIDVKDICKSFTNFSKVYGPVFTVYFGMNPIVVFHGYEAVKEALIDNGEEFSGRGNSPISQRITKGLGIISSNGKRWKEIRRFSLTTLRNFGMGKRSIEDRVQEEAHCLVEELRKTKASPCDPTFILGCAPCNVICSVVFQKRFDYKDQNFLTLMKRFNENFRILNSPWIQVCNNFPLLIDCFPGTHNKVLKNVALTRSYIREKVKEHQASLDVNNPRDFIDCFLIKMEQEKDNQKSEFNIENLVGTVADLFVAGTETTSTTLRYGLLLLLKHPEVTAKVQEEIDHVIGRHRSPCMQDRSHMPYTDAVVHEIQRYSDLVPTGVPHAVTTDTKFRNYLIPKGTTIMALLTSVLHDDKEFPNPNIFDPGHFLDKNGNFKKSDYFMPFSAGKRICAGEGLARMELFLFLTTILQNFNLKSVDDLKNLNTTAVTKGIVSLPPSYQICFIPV

C57BL/6 mice = test: Tail Suspension Test; type: in vivo, mouse; settings: for Dunnett's Multiple Comparison Test Mean Diff., immobility on the TST: percent immobility
Text: The Tail Suspension Test is a mouse behavioral test useful for screening for potential antidepressant drugs. The tail suspension test is an experimental method used in scientific research to measure a state of being helpless in rodents, especially in mice. It is based on the observation that if a mouse is subjected to short term inescapable stress, then it will stop struggling. Immobility is quantified by measuring the amount of time lacking whole-body activity.
A cohort of 32 adult male mice was used for locomotor activity and a separate cohort of 40 male mice were used for tail suspension (C57BL/6, 7-8 weeks old; body weights 18-25 g, Charles River Laboratories). Upon arrival at the facility, animals were group-housed (5/cage) with access to food and water ad libitum. Animals were maintained on a 12/12-hour light/dark cycle in a temperature—(22±2° C.) and humidity—(approx. 50%) controlled room. Animals were numbered consecutively by tail ID marker in each home cage. Each home cage was identified by a colored ID card indicating the study number, sex, animal numbers and date of birth.
Animals (8/group) were injected (10 mL/kg, ip) 30 min prior to the TST. For locomotor activity monitoring, mice were injected (10 mL/kg, ip; around 12-1 pm) after a full 24 hr period of recordings were collected for baseline activity. For both locomotor activity recordings and TST, PV-03446 doses included 0.3, 1, 3, and 10 mg/kg.
Tail Suspension Test: A piezoelectric sensor operated by the SmartCage system was utilized and video recording was conducted for scoring. Once animals were acclimated to the testing room, the TST was initiated by placing the tail of the test mouse onto the piezoelectric sensor-board and hanging the mouse upside down. The recording period was initiated once the mouse was upside down and lasted for 6 min. At the end of the recording period, the mouse was removed from the recording device and returned to its home cage. The immobilized time, indicating depression-like behavior, was quantified using manual scoring of the video recording from 120 seconds to 360 seconds during the TST. The percent immobility time was calculated as (immobility time (seconds)/240 seconds)*100.
Group differences found to have normal distribution were evaluated using a 1-way ANOVA followed by a Dunnett's Multiple Comparison Test to compare all treatment groups to the vehicle control. Statistical significance was set at p≤0.05.

CYP2C9 = CYP2C9 (Homo sapiens, UniProt P11712)
Sequence of CYP2C9 (P11712 whole entry): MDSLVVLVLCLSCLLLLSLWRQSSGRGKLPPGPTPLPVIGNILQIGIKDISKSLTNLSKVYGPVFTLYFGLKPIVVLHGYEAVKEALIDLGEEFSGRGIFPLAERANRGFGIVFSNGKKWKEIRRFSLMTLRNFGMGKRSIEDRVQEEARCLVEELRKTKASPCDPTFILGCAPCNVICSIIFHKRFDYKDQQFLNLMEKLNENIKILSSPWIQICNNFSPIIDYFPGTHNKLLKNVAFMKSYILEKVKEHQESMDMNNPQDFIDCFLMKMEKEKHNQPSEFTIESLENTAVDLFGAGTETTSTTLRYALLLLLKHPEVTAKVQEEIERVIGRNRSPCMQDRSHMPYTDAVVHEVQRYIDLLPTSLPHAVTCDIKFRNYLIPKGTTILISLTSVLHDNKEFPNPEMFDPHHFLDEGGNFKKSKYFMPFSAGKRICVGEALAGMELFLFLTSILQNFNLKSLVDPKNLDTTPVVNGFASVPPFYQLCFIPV

Structure (SMILES): Clc1ccc(C2(OCC3OCCO3)c3ccccc3C3=NCCN32)cc1 (stereo not shown) [Compound I-19]
- % recovery, brain homogenate ([1]; 6 hours of dialysis): 51.3±2.58%
- % Recovery ([1]; dialysis time 1 h): 87.8 ± 2.40%
- % Unbound ([1]; dialysis time 1 h): 1.33%
- % Recovery ([1]; dialysis time 2 h): 83.1 ± 1.58%
- % Unbound ([1]; dialysis time 2 h): 1.64 ± 0.181%
- % Recovery ([1]; dialysis time 4 h): 65.1 ± 4.05%
- % Unbound ([1]; dialysis time 4 h): 2.46 ± 0.183%
- % Recovery ([1]; dialysis time 6 h): 51.3 ± 2.58%
- % Unbound ([1]; dialysis time 6 h): 3.31 ± 0.385%
- Inhibition at Highest Test Article Concentration (CYP2C8; 2C8, Amodiaquine, at 50 μM): 73.7 at 50 μM %
- pIC50 (CYP2C8; microsomes): 5.62
- One-way analysis of variance F, immobility on the TST (C57BL/6 mice; 0.3, 1.0, 3.0, 10.0 mg/kg IP vs control, 5 groups): 4.71
- immobility (%) (C57BL/6 mice; 0.3, 1.0, 3.0 and 10.0 mg/kg, IP, 30 min prior to TST): significant reduction in immobility (%) at all doses tested
- decrease of immobility compared to vehicle (C57BL/6 mice; 0.3-10 mg/kg IP, depending on the dose): 26-38%
- Dunnett's Multiple Comparison Test Significant? P < 0.05?, immobility on the TST (C57BL/6 mice; Control vs 0.3 mg/kg IP): Yes
- Dunnett's Multiple Comparison Test q, immobility on the TST (C57BL/6 mice; Control vs 0.3 mg/kg IP): 2.592
- Dunnett's Multiple Comparison Test Mean Diff., immobility on the TST (C57BL/6 mice; Control vs 0.3 mg/kg IP): 19.9
- Dunnett's Multiple Comparison Test Significant? P < 0.05?, immobility on the TST (C57BL/6 mice; Control vs 1.0 mg/kg IP): Yes
- Dunnett's Multiple Comparison Test q, immobility on the TST (C57BL/6 mice; Control vs 1.0 mg/kg IP): 3.739
- Dunnett's Multiple Comparison Test Mean Diff., immobility on the TST (C57BL/6 mice; Control vs 1.0 mg/kg IP): 28.7
- Dunnett's Multiple Comparison Test Significant? P < 0.05?, immobility on the TST (C57BL/6 mice; Control vs 3.0 mg/kg IP): Yes
- Dunnett's Multiple Comparison Test q, immobility on the TST (C57BL/6 mice; Control vs 3.0 mg/kg IP): 3.773
- Dunnett's Multiple Comparison Test Mean Diff., immobility on the TST (C57BL/6 mice; Control vs 3.0 mg/kg IP): 28.96
- Dunnett's Multiple Comparison Test Significant? P < 0.05?, immobility on the TST (C57BL/6 mice; Control vs 10.0 mg/kg IP): Yes
- Dunnett's Multiple Comparison Test q, immobility on the TST (C57BL/6 mice; Control vs 10.0 mg/kg IP): 2.626
- Dunnett's Multiple Comparison Test Mean Diff., immobility on the TST (C57BL/6 mice; Control vs 10.0 mg/kg IP): 20.16
- Inhibition at Highest Test Article Concentration (CYP2C9; 2C9, Diclofenac, at 50 μM): 53.3 at 50 μM %
- IC50 (CYP2C9; pooled human liver microsomes, 30 min): did not inhibit
